In patent publication US11104656B2, “Method for purifying and removing color of FDCA” (Nederlandse Organisatie voor …, priority 2017, dated 2021):

Experiments:
Type in all cases: physicochemical
[1] = Influence of heating time on color of the precipitate after cooling; settings: 200 mg FDCA in 2 mL H2O, 140-180° C., 5-15 min, prolonged heating
Experimental: In another experiment, the influence of heating time on the color of the precipitate after cooling was investigated. A total of nine samples were prepared by mixing 200 mg of FDCA in 2 mL H2O. [table]

[2] = Influence of heating time on decomposition (FDCA in water at 130° C.); settings: for appearance of solution on heating (decomposition): deionised water
Experimental: In a reaction vessel, 60 mg of FDCA was dissolved over time in 3 ml of deionised water at a temperature of 130° C. On heating, around 5 minutes was needed to allow the solid to dissolve. Following this, samples were taken at 12, 15, 18 and 21 minutes. The samples were photographed at these intervals (FIG. 4).

[3] = Solubility of FDCA in water at different temperatures; settings: water as solvent, temperatures beyond 130° C.
Description: The inventors realized that it is desirable for FDCA crystallization to use superheating for dissolving FDCA. FDCA may show a significant increase in solubility above superheating conditions. […] The byproduct is colored and its formation is therefore undesirable both in view of purity and color.

by-product formation after heating and cooling [1]: formation of black solid by-products | time needed to allow the solid to dissolve ([2]; 60 mg FDCA in 3 ml deionised water): around 5 minutes | appearance of solution on heating (decomposition) ([2]; after 12 minutes): a light solution is observed | appearance of solution on heating (decomposition) ([2]; after 18 minutes): clearly darker brown in color | solubility of FDCA [3]: increases dramatically
SMILES: O=C(O)c1ccc(C(=O)O)o1 [FDCA, 2,5-furandicarboxylic acid]
appearance of solution on heating (decomposition) ([2]; after 15 minutes): some black solid by-products started to form
